This note sets out measurements from BindingDB's records for patent US20230312550 (Astrazeneca, 2023).

The target of this assay is T1, Prolyl endopeptidase FAP (Homo sapiens, UniProt Q12884).
T1 sequence (Q12884 whole entry): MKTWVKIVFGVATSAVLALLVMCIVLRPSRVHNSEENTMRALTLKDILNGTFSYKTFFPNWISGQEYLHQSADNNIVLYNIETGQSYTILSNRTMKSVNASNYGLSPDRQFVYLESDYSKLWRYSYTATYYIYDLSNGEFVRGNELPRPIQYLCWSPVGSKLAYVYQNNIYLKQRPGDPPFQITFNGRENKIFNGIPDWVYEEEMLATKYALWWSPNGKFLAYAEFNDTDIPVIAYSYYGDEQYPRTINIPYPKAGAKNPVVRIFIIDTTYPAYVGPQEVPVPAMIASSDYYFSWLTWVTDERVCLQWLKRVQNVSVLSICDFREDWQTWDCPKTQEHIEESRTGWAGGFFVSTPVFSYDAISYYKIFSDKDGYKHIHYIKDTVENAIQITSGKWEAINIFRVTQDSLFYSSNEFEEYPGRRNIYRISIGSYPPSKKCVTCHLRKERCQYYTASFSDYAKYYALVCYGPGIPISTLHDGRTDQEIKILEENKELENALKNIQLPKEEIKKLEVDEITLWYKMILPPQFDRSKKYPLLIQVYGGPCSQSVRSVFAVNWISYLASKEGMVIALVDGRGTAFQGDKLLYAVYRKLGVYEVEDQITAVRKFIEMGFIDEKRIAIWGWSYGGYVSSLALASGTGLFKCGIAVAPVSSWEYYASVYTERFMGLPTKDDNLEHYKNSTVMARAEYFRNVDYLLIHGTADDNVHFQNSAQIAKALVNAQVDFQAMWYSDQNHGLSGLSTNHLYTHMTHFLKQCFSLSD
Description: hFAP Binding Assay. The note with it: for kon: read-out: kon (M-1-s-1).

As a reminder, the koff is the first-order rate constant of dissociation. Low values mean a long-lived complex, high ones a short-lived complex. The term kon denotes the second-order rate constant of association.

Description: Table 1: Compounds were tested in a direct binding assay using 8K surface plasmon resonance biosensor (GE Healthcare) at 20° C. Immobilization of hFAP (M39-A757) on a CMD200M sensor chip (Xantec) was performed using standard amine coupling procedure in immobilization buffer (10 mM HEPES, 150 mM NaCl, 0.05% Tween20, pH 7.4). The surface was washed with 10 mM NaOH, 1M NaCl before being activated with EDC/NHS (GE Healthcare), followed by immobilization of hFAP (in 10 mM Acetate pH 5.0). Finally, the surface was deactivated by ethanolamine. Immobilization levels of hFAP were around 4000-6000 RU. The reference spot was treated as described, omitting the injection of hFAP. Compound concentration series were injected over the immobilized protein in increasing concentrations (2-500 nM) using single cycle kinetics in running buffer (20 mM TRIS, 150 mM NaCl, 0.05% Tween20, 1% DMSO, pH 7.4).

`COC[C@H]1[C@H](C)OCCN1c1ccc2nccc(C(=O)NCC(=O)N3CSC[C@H]3C#N)c2c1` [US20230312550, Example 96]: the koff came to 0.00022 s⁻¹ and the kon was found to be 4e+06 M⁻¹ s⁻¹.
Consider `N#C[C@@H]1CSCN1C(=O)CNC(=O)c1ccnc2ccc(N3CC(CCF)C3)cc12` [US20230312550, Example 146], for which the koff came out at 0.00017 s⁻¹ and the kon amounted to 1.4e+06 M⁻¹ s⁻¹.
Taken in the same sequence, the figures for `CO[C@H]1CCN(c2ccc3nccc(C(=O)NCC(=O)N4CSC[C@H]4C#N)c3c2)C1` [US20230312550, Example 207] were 5.3e-05 s⁻¹ and 4.6e+06 M⁻¹ s⁻¹.
Taken in the same sequence, the figures for `CC1(C)CN(c2ccc3nccc(C(=O)NCC(=O)N4CSC[C@H]4C#N)c3c2)C(=O)O1` [US20230312550, Example 13] were 7.6e-05 s⁻¹ and 9.2e+06 M⁻¹ s⁻¹.
In the same order, the values of `N#C[C@@H]1CSCN1C(=O)CNC(=O)c1ccnc2ccc(N3CCC(F)(F)CC3)cc12` [US20230312550, Example 35] are 0.0001 s⁻¹ and 900000 M⁻¹ s⁻¹.
With `COCC1(C)CN(c2ccc3nccc(C(=O)NCC(=O)N4CSC[C@H]4C#N)c3c2)C1` [US20230312550, Example 29], the koff came out at 6.1e-05 s⁻¹ and the kon is 1.1e+06 M⁻¹ s⁻¹.
Taken in the same sequence, the figures for `C[C@@H]1COC[C@@H](C)N1c1ccc2nccc(C(=O)NCC(=O)N3CSC[C@H]3C#N)c2c1` [US20230312550, Example 105] were 6.8e-05 s⁻¹ and 890000 M⁻¹ s⁻¹.
Taken in the same sequence, the figures for `CC1(CC(F)(F)F)CN(c2ccc3nccc(C(=O)NCC(=O)N4CSC[C@H]4C#N)c3c2)C1` [US20230312550, Example 131] were 0.00014 s⁻¹ and 1.8e+06 M⁻¹ s⁻¹.
Taken in the same sequence, the figures for `Cc1cc(C(F)(F)F)nn1-c1ccc2nccc(C(=O)NCC(=O)N3CSC[C@H]3C#N)c2c1` [US20230312550, Example 116] were 0.0012 s⁻¹ and 7.9e+06 M⁻¹ s⁻¹.
With `COCC[C@@H]1COCCN1c1ccc2nccc(C(=O)NCC(=O)N3CSC[C@H]3C#N)c2c1` [US20230312550, Example 95], the koff is 5.6e-05 s⁻¹ and the kon was 2.9e+06 M⁻¹ s⁻¹.
On to `N#C[C@@H]1CSCN1C(=O)CNC(=O)c1ccnc2ccc(N3CCC(C(F)(F)F)CC3)cc12` [US20230312550, Example 39], for which the koff was 0.00016 s⁻¹ and the kon worked out at 4.9e+06 M⁻¹ s⁻¹.
As to `N#C[C@@H]1CSCN1C(=O)CNC(=O)c1ccnc2ccc(-n3ccnc3-c3ccccc3)cc12` [US20230312550, Example 217], the koff came out at 0.0013 s⁻¹ and the kon was 1.8e+06 M⁻¹ s⁻¹.
In the same order, the values of `CC1(O)CCN(c2ccc3nccc(C(=O)NCC(=O)N4CSC[C@H]4C#N)c3c2)CC1` [US20230312550, Example 190] are 3.6e-05 s⁻¹ and 1.8e+06 M⁻¹ s⁻¹.
In the same order, the values of `N#C[C@@H]1CSCN1C(=O)CNC(=O)c1ccnc2ccc(N3C4CCCC3COC4)cc12` [US20230312550, Example 86] are 5.8e-05 s⁻¹ and 730000 M⁻¹ s⁻¹.
In the same order, the values of `CCC1(O)CN(c2ccc3nccc(C(=O)NCC(=O)N4CSC[C@H]4C#N)c3c2)C1` [US20230312550, Example 154] are 5.4e-05 s⁻¹ and 910000 M⁻¹ s⁻¹.
Consider `CC[C@H]1COCCN1c1ccc2nccc(C(=O)NCC(=O)N3CSC[C@H]3C#N)c2c1` [US20230312550, Example 106], for which the koff stood at 0.00014 s⁻¹ and the kon stood at 1.8e+06 M⁻¹ s⁻¹.
In the same order, the values of `N#C[C@@H]1CSCN1C(=O)CNC(=O)c1ccnc2ccc(N3CCCC[C@@H](F)C3)cc12` [US20230312550, Example 59] are 0.00019 s⁻¹ and 2.6e+06 M⁻¹ s⁻¹.
Taken in the same sequence, the figures for `N#C[C@@H]1CSCN1C(=O)CNC(=O)c1ccnc2ccc(N3CCCC(F)(F)C3)cc12` [US20230312550, Example 36] were 9e-05 s⁻¹ and 3e+06 M⁻¹ s⁻¹.
In the same order, the values of `CC1CC2(C1)CN(c1ccc3nccc(C(=O)NCC(=O)N4CSC[C@H]4C#N)c3c1)C2` [US20230312550, Example 149] are 3.9e-05 s⁻¹ and 4.8e+06 M⁻¹ s⁻¹.
Regarding `N#C[C@@H]1CSCN1C(=O)CNC(=O)c1ccnc2ccc(N3CC4(CC4)C3)cc12` [US20230312550, Example 164], the koff was determined as 3.6e-05 s⁻¹ and the kon was 1.4e+06 M⁻¹ s⁻¹.
In the same order, the values of `N#C[C@@H]1CSCN1C(=O)CNC(=O)c1ccnc2ccc(-c3ccc(F)cn3)cc12` [US20230312550, Example 125] are 0.00014 s⁻¹ and 3e+06 M⁻¹ s⁻¹.
Taken in the same sequence, the figures for `C[C@H]1COCCCN1c1ccc2nccc(C(=O)NCC(=O)N3CSC[C@H]3C#N)c2c1` [US20230312550, Example 63] were 5.9e-05 s⁻¹ and 4.1e+06 M⁻¹ s⁻¹.
In the same order, the values of `C[C@@H]1CN(c2ccc3nccc(C(=O)NCC(=O)N4CSC[C@H]4C#N)c3c2)C[C@H](C)[C@]1(C)O` [US20230312550, Example 193] are 0.00012 s⁻¹ and 740000 M⁻¹ s⁻¹.
For `CC(F)(F)CC1CN(c2ccc3nccc(C(=O)NCC(=O)N4CSC[C@H]4C#N)c3c2)C1` [US20230312550, Example 140], the koff turned out to be 0.00016 s⁻¹ and the kon was found to be 2.6e+06 M⁻¹ s⁻¹.
In the same order, the values of `N#C[C@@H]1CSCN1C(=O)CNC(=O)c1ccnc2ccc(N3CC4(CCCC4(F)F)C3)cc12` [US20230312550, Example 141] are 7.8e-05 s⁻¹ and 1.4e+06 M⁻¹ s⁻¹.
Taken in the same sequence, the figures for `N#C[C@@H]1CSCN1C(=O)CNC(=O)c1ccnc2ccc(N3CC4(CC4)C[C@@H]3CF)cc12` [US20230312550, Example 58] were 0.091 s⁻¹ and 8.8e+09 M⁻¹ s⁻¹.
In the same order, the values of `CC1(C)CCN(c2ccc3nccc(C(=O)NCC(=O)N4CSC[C@H]4C#N)c3c2)C1=O` [US20230312550, Example 12] are 6.4e-05 s⁻¹ and 1.9e+06 M⁻¹ s⁻¹.
Regarding `CC1(C)CN(c2ccc3nccc(C(=O)NCC(=O)N4CSC[C@H]4C#N)c3c2)CCC1(F)F` [US20230312550, Example 38], the koff was 7.8e-05 s⁻¹ and the kon was determined as 520000 M⁻¹ s⁻¹.
Taken in the same sequence, the figures for `CO[C@@H]1CN(c2ccc3nccc(C(=O)NCC(=O)N4CSC[C@H]4C#N)c3c2)[C@H]1C` [US20230312550, Example 30] were 0.00022 s⁻¹ and 5.2e+06 M⁻¹ s⁻¹.
Taken in the same sequence, the figures for `COC[C@@H]1CN(c2ccc3nccc(C(=O)NCC(=O)N4CSC[C@H]4C#N)c3c2)CCO1` [US20230312550, Example 93] were 8e-05 s⁻¹ and 1.8e+06 M⁻¹ s⁻¹.
With `CC1(C(F)F)CN(c2ccc3nccc(C(=O)NCC(=O)N4CSC[C@H]4C#N)c3c2)C1` [US20230312550, Example 135], the koff amounted to 2.3e-05 s⁻¹ and the kon turned out to be 1.7e+06 M⁻¹ s⁻¹.
Taken in the same sequence, the figures for `N#C[C@@H]1CSCN1C(=O)CNC(=O)c1ccnc2ccc(N3C[C@H](O)C(F)(F)C3)cc12` [US20230312550, Example 224] were 6.8e-05 s⁻¹ and 3e+06 M⁻¹ s⁻¹.
In the same order, the values of `C[C@@H]1CCN(c2ccc3nccc(C(=O)NCC(=O)N4CSC[C@H]4C#N)c3c2)C1` [US20230312550, Example 55] are 0.00025 s⁻¹ and 6.7e+06 M⁻¹ s⁻¹.
Taken in the same sequence, the figures for `CS(=O)(=O)C[C@@H]1CN(c2ccc3nccc(C(=O)NCC(=O)N4CSC[C@H]4C#N)c3c2)CCO1` [US20230312550, Example 94] were 9.9e-05 s⁻¹ and 1.9e+06 M⁻¹ s⁻¹.
For the molecule `N#C[C@@H]1CSCN1C(=O)CNC(=O)c1ccnc2ccc(N3CCC(F)(c4ccccc4)CC3)cc12` [US20230312550, Example 223], the koff was 2.6e-05 s⁻¹ and the kon worked out at 2.5e+06 M⁻¹ s⁻¹.
Taken in the same sequence, the figures for `N#C[C@@H]1CSCN1C(=O)CNC(=O)c1ccnc2ccc(N3CC4C(C3)C4(F)F)cc12` (stereo partly drawn) [US20230312550, Example 160] were 7.4e-05 s⁻¹ and 1.1e+06 M⁻¹ s⁻¹.
In the same order, the values of `C[C@@H]1COC[C@H](C)N1c1cc2c(C(=O)NCC(=O)N3CSC[C@H]3C#N)ccnc2cc1Br` [US20230312550, Example 100] are 0.0022 s⁻¹ and 3e+06 M⁻¹ s⁻¹.
As for `CC1(C)Cc2c(-c3ccc4nccc(C(=O)NCC(=O)N5CSC[C@H]5C#N)c4c3)cnn2C1` [US20230312550, Example 123], the koff was found to be 0.00042 s⁻¹ and the kon amounted to 3e+06 M⁻¹ s⁻¹.
In the same order, the values of `CC1(C)CCN(c2ccc3nccc(C(=O)NCC(=O)N4CSC[C@H]4C#N)c3c2)CC1` [US20230312550, Example 33] are 5.2e-05 s⁻¹ and 1.1e+06 M⁻¹ s⁻¹.
Taken in the same sequence, the figures for `N#C[C@@H]1CSCN1C(=O)CNC(=O)c1ccnc2ccc(N3CC(F)(C4CC4)C3)cc12` [US20230312550, Example 31] were 0.00024 s⁻¹ and 9.7e+06 M⁻¹ s⁻¹.
Taken in the same sequence, the figures for `CC1(O)CN(c2ccc3nccc(C(=O)NCC(=O)N4CSC[C@H]4C#N)c3c2)C1` [US20230312550, Example 165] were 6.3e-05 s⁻¹ and 1.2e+06 M⁻¹ s⁻¹.
Take `N#C[C@@H]1CSCN1C(=O)CNC(=O)c1ccnc2ccc(N3CCOC4(CCOCC4)C3)cc12` [US20230312550, Example 99]: the koff is 0.0002 s⁻¹ and the kon amounted to 2.1e+06 M⁻¹ s⁻¹.
`CC1(C)CN(c2ccc3nccc(C(=O)NCC(=O)N4CSC[C@H]4C#N)c3c2)CCO1` [US20230312550, Example 88]: the koff turned out to be 0.00034 s⁻¹ and the kon was found to be 4.2e+06 M⁻¹ s⁻¹.
In the same order, the values of `N#C[C@@H]1CSCN1C(=O)CNC(=O)c1ccnc2ccc(N3CC(F)(C(F)(F)F)C3)cc12` [US20230312550, Example 143] are 5.7e-05 s⁻¹ and 1.6e+06 M⁻¹ s⁻¹.
